# Measured values: the supplement of paper PMC10307832
# Legend:
# Assay in all cases: relative viability (nuclei count vs DMSO), 5 days (fraction); higher = more cells survive
# [1] = compound: O=C(NC1CCNCC1)c1n[nH]cc1NC(=O)c1c(Cl)cccc1Cl [AT-7519] + CC(C)C[C@H](NC(=O)[C@H](Cc1ccccc1)NC(=O)c1cnccn1)B(O)O [Bortezomib] (partner 0.002 µM)
# Summary of the method: (§1)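 Nuclei were stained with Hoechst during a one-step fixation (final 0.05% Triton X-100, 1% formaldehyde, 1 ug/ml Hoechst) carried out 5 days after dosing, then counted on 4× images. The cells, lung cancer lines in 1536-well plates, had been dosed by pin tool the day after seeding with one drug alone or a fixed anchor-drug dose plus five library-drug doses (not always all listed) in √10 steps. Relative viability is the nuclei count in treated wells divided by that in vehicle wells, and each value is the median of duplicate plates.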
# [2] = compound: C1=CC2=C(C=C(C(=C2N=C1)O)N=NC3=CC4=C(C=C3)C=C(C=C4)S(=O)(=O)O)S(=O)(=O)O + CC(=O)Nc1cccc(-n2c(=O)n(C3CC3)c(=O)c3c(Nc4ccc(I)cc4F)n(C)c(=O)c(C)c32)c1 [Trametinib] (partner 0.02 µM)
# Summary of the method: as §1
# [3] = compound: C1=CC2=C(C=C(C(=C2N=C1)O)N=NC3=CC4=C(C=C3)C=C(C=C4)S(=O)(=O)O)S(=O)(=O)O + C[C@@H](Oc1cc(-c2cnn(C3CCNCC3)c2)cnc1N)c1c(Cl)ccc(F)c1Cl [Crizotinib] (partner 1 µM)
# Summary of the method: as §1
# [4] = compound: O=C(NC1CCNCC1)c1n[nH]cc1NC(=O)c1c(Cl)cccc1Cl [AT-7519] + Nc1nc2[nH]cc(CCc3ccc(C(=O)N[C@@H](CCC(=O)O)C(=O)O)cc3)c2c(=O)[nH]1 [Pemetrexed] (partner 0.2 µM)
# Summary of the method: as §1
cell line,measurement,setting,value
UMC-11,relative viability,[1]; first compound 0.01 µM,1.03
same,relative viability,[1]; first compound 0.03162 µM,0.667
same,relative viability,[1]; first compound 0.3162 µM,0.427
same,relative viability,[1]; first compound 1 µM,0.359
same,relative viability,[2]; first compound 0.08 µM,0.74
same,relative viability,[2]; first compound 0.253 µM,0.777
same,relative viability,[2]; first compound 0.8 µM,0.658
same,relative viability,[2]; first compound 2.53 µM,0.728
same,relative viability,[2]; first compound 8 µM,0.766
same,relative viability,[3]; first compound 0.08 µM,0.818
same,relative viability,[3]; first compound 0.253 µM,0.584
same,relative viability,[3]; first compound 0.8 µM,0.491
same,relative viability,[3]; first compound 2.53 µM,0.693
same,relative viability,[3]; first compound 8 µM,0.717
same,relative viability,[4]; first compound 0.01 µM,0.807
same,relative viability,[4]; first compound 0.03162 µM,0.801
same,relative viability,[4]; first compound 0.3162 µM,0.586
same,relative viability,[4]; first compound 1 µM,0.331
